# Assay results from patent US12404241B2 (Celgene Corporation, priority 2018, dated 2025).
# Counter-ions that a name gives are not always drawn.
# Molecular target: T1, AR (Homo sapiens, UniProt P10275)
# T1 construct: endogenous in cells; host or cells: VCaP cells
# T1 sequence (P10275 1-920): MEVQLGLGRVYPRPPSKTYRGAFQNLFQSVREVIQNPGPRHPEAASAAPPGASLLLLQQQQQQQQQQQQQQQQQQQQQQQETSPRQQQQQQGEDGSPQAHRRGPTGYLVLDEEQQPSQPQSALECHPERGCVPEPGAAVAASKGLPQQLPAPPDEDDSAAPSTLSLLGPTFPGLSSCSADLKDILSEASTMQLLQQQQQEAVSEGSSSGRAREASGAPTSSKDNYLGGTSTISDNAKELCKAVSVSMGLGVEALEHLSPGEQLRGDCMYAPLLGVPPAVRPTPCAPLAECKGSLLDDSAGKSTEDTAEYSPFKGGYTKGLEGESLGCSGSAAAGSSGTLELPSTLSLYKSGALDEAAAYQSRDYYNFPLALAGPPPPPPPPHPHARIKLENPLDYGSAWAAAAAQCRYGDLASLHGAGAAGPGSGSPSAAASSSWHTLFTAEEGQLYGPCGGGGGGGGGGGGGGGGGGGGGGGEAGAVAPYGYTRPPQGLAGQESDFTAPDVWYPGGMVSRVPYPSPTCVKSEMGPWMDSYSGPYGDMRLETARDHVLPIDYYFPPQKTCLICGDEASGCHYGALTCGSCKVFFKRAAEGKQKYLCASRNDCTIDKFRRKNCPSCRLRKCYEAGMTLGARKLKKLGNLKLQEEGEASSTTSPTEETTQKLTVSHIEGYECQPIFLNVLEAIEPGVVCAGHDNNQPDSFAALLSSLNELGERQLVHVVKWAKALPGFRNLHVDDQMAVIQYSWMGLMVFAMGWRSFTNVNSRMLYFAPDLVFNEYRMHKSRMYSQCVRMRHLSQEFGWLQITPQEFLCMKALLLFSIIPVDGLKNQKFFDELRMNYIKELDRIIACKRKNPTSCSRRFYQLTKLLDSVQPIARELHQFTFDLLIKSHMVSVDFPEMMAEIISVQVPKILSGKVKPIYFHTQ
# Assay: VCAP AR Degradation Assay
# Assay type: cell-based
# Conditions: for Y (AR degradation efficiency, % of DMSO control): class symbols *; for DC50: class symbols A-C, read-out: DC50
# Procedure: VCAP AR Degradation Assay. Test compounds were pre-dispensed into a Corning CellBind 96-well clear bottom plate (Cat #3300) using an acoustic dispenser to make a 10-point concentration series at 1:3 dilution for each compound. The final top concentration of each compound was 5 μM. DMSO at a final concentration of 0.1% was used as a control. VCaP cells cultured in DMEM with 8% fetal bovine serum (FBS) were seeded at 50K cells per well in a 200 μL volume into the compound plate and incubated at 37° C. in a CO2 incubator for 24 h. The medium was carefully removed from the cells and the plate was placed on ice. One hundred μL of ice-cold 1x cell lysis buffer from Cell Signaling Technologies (Cat #9803) was added to each well of the cells and the plate was incubated at 4° C. on a shaker for 1 h. Fifteen μL of cell lysate was used for AR ELISA detection using a PathScan Total Sandwich AR ELISA kit (Cell Signaling Technology, Cat #12580). AR levels in compound-treated wells were normalized to that of DMSO control and expressed as percent of control (PoC) (y). A Four Parameter Logistic Model (Sigmoidal Dose-Response Model) was used to determine the compound's DC50, and EC50, using the following equation:
# [formula] • A=YMin (lowest AR level normalized to DMSO control in response to compound treatment, as determined by curve fit) • B=YMax (maximum AR level as determined by curve fit) • C=EC50 • D=Hill Slope • x=compound concentration • EC50=the concentration of compound when y=(YMax−YMin)/2 • DC50=the concentration of the compound when y=50% of DMSO control (50% AR degradation) • y=AR protein level normalized to DMSO control
# The lowest measured AR level normalized to DMSO control in response to compound treatment, termed Y value, was used to characterize the compound-mediated AR degradation efficiency.
SMILES,"Y (AR degradation efficiency, % of DMSO control)",DC50 [nM]
"C[C@@H]1CN(CCOc2ncc(N3C(=S)N(c4ccc(C#N)c(C(F)(F)F)c4)C(=O)C34CCC4)cc2C2CC2)C[C@H](C)N1CC(=O)Nc1cccc(NC2CCC(=O)NC2=O)c1 (stereo partly drawn) [Example 229, 2-((2S,6R)-4-(2-(5-(7-(4-cyano-3-(trifluoromethyl)phenyl)-8-oxo-6-thioxo-5,7-diazaspiro[3.4]octan-5-yl)-3-cyclopropylpyridin-2-yloxy)ethyl)-2,6-dimethylpiperazin-1-yl)-N-(3-(2,6-dioxopiperidin-3-ylamino)phenyl)acetamide]",* (0<Y<=25%),< 100
"C[C@@H]1CN(CCOc2ccc(N3C(=S)N(c4ccc(C#N)c(C(F)(F)F)c4)C(=O)C3(C)C)cc2C(C)(F)F)CCN1CC(=O)Nc1cc(Cl)cc(NC2CCC(=O)NC2=O)c1 (stereo partly drawn) [Example 148, N-(3-chloro-5-(2,6-dioxopiperidin-3-ylamino)phenyl)-2-((R)-4-(2-(4-(3-(4-cyano-3-(trifluoromethyl)phenyl)-5,5-dimethyl-4-oxo-2-thioxoimidazolidin-1-yl)-2-(1,1-difluoroethyl)phenoxy)ethyl)-2-methylpiperazin-1-yl)acetamide]",* (0<Y<=25%),< 100
"CCc1cc(N2C(=S)N(c3ccc(C#N)c(C(F)(F)F)c3)C(=O)C2(C)C)ccc1OCCN1C[C@H](C)N(CC(=O)Nc2cc(Cl)cc(NC3CCC(=O)NC3=O)c2)[C@@H](C)C1 (stereo partly drawn) [Example 147, N-(3-chloro-5-(2,6-dioxopiperidin-3-ylamino)phenyl)-2-((2S,6S)-4-(2-(4-(3-(4-cyano-3-(trifluoromethyl)phenyl)-5,5-dimethyl-4-oxo-2-thioxoimidazolidin-1-yl)-2-ethylphenoxy)ethyl)-2,6-dimethylpiperazin-1-yl)acetamide]",* (0<Y<=25%),< 100
"CCc1cc(N2C(=S)N(c3ccc(C#N)c(C(F)(F)F)c3)C(=O)C2(C)C)ccc1OCCN1C[C@@H](C)N(CC(=O)Nc2cc(Cl)cc(NC3CCC(=O)NC3=O)c2)[C@H](C)C1 (stereo partly drawn) [Example 130, N-(3-chloro-5-(2,6-dioxopiperidin-3-ylamino)phenyl)-2-((2R,6R)-4-(2-(4-(3-(4-cyano-3-(trifluoromethyl)phenyl)-5,5-dimethyl-4-oxo-2-thioxoimidazolidin-1-yl)-2-ethylphenoxy)ethyl)-2,6-dimethylpiperazin-1-yl)acetamide]",* (0<Y<=25%),< 100
"CCc1cc(N2C(=S)N(c3cnc(C#N)c(C(F)(F)F)c3)C(=O)C2(C)C)ccc1O[C@H](C)CN1C[C@@H](C)N(CC(=O)Nc2cccc(NC3CCC(=O)NC3=O)c2)[C@@H](C)C1 (single isomer, unassigned) [Example 239]",* (0<Y<=25%),< 100
"CC1(C)C(=O)N(c2ccc(C#N)c(C(F)(F)F)c2)C(=S)N1c1ccc(OCCN2CCN(CC(=O)Nc3cccc(NC4CCC(=O)NC4=O)c3)CC2)c(CCF)c1 (centres unmarked) [Example 160, 2-(4-(2-(4-(3-(4-cyano-3-(trifluoromethyl)phenyl)-5,5-dimethyl-4-oxo-2-thioxoimidazolidin-1-yl)-2-(2-fluoroethyl)phenoxy)ethyl)piperazin-1-yl)-N-(3-(2,6-dioxopiperidin-3-ylamino)phenyl)acetamide]",* (0<Y<=25%),< 100
"C[C@@H]1CN(CCOc2ccc(N3C(=S)N(c4cnc(C#N)c(C(F)(F)F)c4)C(=O)C34CCC4)cc2C(C)(F)F)C[C@H](C)N1CC(=O)Nc1cccc(NC2CCC(=O)NC2=O)c1 (stereo partly drawn) [Example 265, 2-((2S,6R)-4-(2-(4-(7-(6-cyano-5-(trifluoromethyl)pyridin-3-yl)-8-oxo-6-thioxo-5,7-diazaspiro[3.4]octan-5-yl)-2-(1,1-difluoroethyl)phenoxy)ethyl)-2,6-dimethylpiperazin-1-yl)-N-(3-(2,6-dioxopiperidin-3-ylamino)phenyl)acetamide]",* (0<Y<=25%),< 100
"CC1(C)C(=O)N(c2ccc(C#N)c(C(F)(F)F)c2)C(=S)N1c1ccc(OCCN2CCN(CC(=O)Nc3cc(NC4CCC(=O)NC4=O)ccc3Cl)CC2)c(Cl)c1 (centres unmarked) [Example 20, hydrochloride]",* (0<Y<=25%),< 100
"CCc1cc(N2C(=S)N(c3ccc(C#N)c(C(F)(F)F)c3)C(=O)C2(C)C)ccc1OCCN1C[C@@H](C)N(CC(=O)Nc2cccc(N[C@H]3CCC(=O)NC3=O)c2)[C@@H](C)C1 [Example 285, 2-((2R,6S)-4-(2-(4-(3-(4-cyano-3-(trifluoromethyl)phenyl)-5,5-dimethyl-4-oxo-2-thioxoimidazolidin-1-yl)-2-ethylphenoxy)ethyl)-2,6-dimethylpiperazin-1-yl)-N-(3-((S)-2,6-dioxopiperidin-3-ylamino)phenyl)acetamide]",* (0<Y<=25%),< 100
"CCc1cc(N2C(=S)N(c3cnc(C#N)c(C(F)(F)F)c3)C(=O)C23CCC3)ccc1OCCN1CCN(CC(=O)Nc2cccc(NC3CCC(=O)NC3=O)c2)CC1 (centres unmarked) [Example 56, 2-(4-(2-(4-(7-(6-cyano-5-(trifluoromethyl)pyridin-3-yl)-8-oxo-6-thioxo-5,7-diazaspiro[3.4]octan-5-yl)-2-ethylphenoxy)ethyl)piperazin-1-yl)-N-(3-(2,6-dioxopiperidin-3-ylamino)phenyl)acetamide]",* (0<Y<=25%),< 100
"CC(C)c1cc(N2C(=S)N(c3cnc(C#N)c(C(F)(F)F)c3)C(=O)C23CCC3)ccc1OCCN1C[C@@H](C)N(CC(=O)Nc2cccc(NC3CCC(=O)NC3=O)c2)[C@@H](C)C1 (stereo partly drawn) [Example 176, 2-((2S,6R)-4-(2-(4-(7-(6-cyano-5-(trifluoromethyl)pyridin-3-yl)-8-oxo-6-thioxo-5,7-diazaspiro[3.4]octan-5-yl)-2-isopropylphenoxy)ethyl)-2,6-dimethylpiperazin-1-yl)-N-(3-(2,6-dioxopiperidin-3-ylamino)phenyl)acetamide]",* (0<Y<=25%),< 100
"CCc1cc(N2C(=S)N(c3ccc(C#N)c(C(F)(F)F)c3)C(=O)C2(C)C)ccc1OCCN1C[C@@H](C)N(CC(=O)Nc2cc(Cl)cc(NC3CCC(=O)NC3=O)c2)C[C@H]1C (stereo partly drawn) [Example 128, N-(3-chloro-5-(2,6-dioxopiperidin-3-ylamino)phenyl)-2-((2R,5R)-4-(2-(4-(3-(4-cyano-3-(trifluoromethyl)phenyl)-5,5-dimethyl-4-oxo-2-thioxoimidazolidin-1-yl)-2-ethylphenoxy)ethyl)-2,5-dimethylpiperazin-1-yl)acetamide]",* (0<Y<=25%),< 100
"CCc1cc(N2C(=S)N(c3ccc(C#N)c(C(F)(F)F)c3)C(=O)C2(C)C)ccc1OCCN1C[C@H](C)N(CC(=O)Nc2cccc(NC3CCC(=O)NC3=O)c2)C[C@H]1C (stereo partly drawn) [Example 122, 2-((2S,5R)-4-(2-(4-(3-(4-cyano-3-(trifluoromethyl)phenyl)-5,5-dimethyl-4-oxo-2-thioxoimidazolidin-1-yl)-2-ethylphenoxy)ethyl)-2,5-dimethylpiperazin-1-yl)-N-(3-(2,6-dioxopiperidin-3-ylamino)phenyl)acetamide]",** (25%<Y<=35%),100 to 500
